Assay results reported in patent publication US20120046224A1, “TREATMENT OF DIABETES AND METABOLIC SYNDROME” (NORDIC BIOSCIENCE A/S, priority 2009, published 2012).
No end group written: not given here.

How the values were obtained:
DIO rats = assay: Oral glucose tolerance test (OGTT) in DIO rats; format: in vivo, rat
Method: (§1) A total of 48 selectively bred male DIO rats were used. At the beginning of the experiment, the animals had reached an age of 35 weeks, out of which 31 weeks were on high-fat diet.
(§2) At day −7, 21 and 42 fasted serum and urine samples were collected and whole body tissue composition was evaluated by MR scanning. At day 42, an oral glucose tolerance test (OGTT) was performed to evaluate glucose homeostasis in the rats. At day −1 the animals were stratified according to weight and whole body fat mass (assessed by a 4-in-1 EchoMRI scanner) to the different treatment groups. The groups were randomized in three teams by body weight.
First day of dosing was day 0. Animals were dosed per oral 5 ml/kg.
In order to test the glucose handling in different treatment groups, an oral glucose tolerance test (OGTT) was performed.

[1] = Body weight and whole body composition (MR scanning) in DIO rats; format: in vivo, rat; details: once daily oral, Calcitonin 2 mg/kg/day with 5-CNAC 150 mg/kg/day, or 5-CNAC 150 mg/kg/day alone
Method: as §1, §2
First day of dosing was day 0. Animals were dosed per oral 5 ml/kg. The compound solution was administered once daily at 7:00 AM-2:00 PM during the whole study (0-42 days) per oral gavage using a gastric tube connected to a 5 ml syringe (luer lock™. Becton).
To assess the distribution of the gained weight during the treatment program the animals were subjected to MR analysis after termination. Two parameters were investigated: 1) change in fatty mass and, 2) change in total water content.

rat hepatocytes = details: cited from earlier work
[2] = rats fed a high fat diet, delivered by osmotic pump; cited from earlier work
[3] = cited from earlier work
[4] = cited from earlier work; remark: listed apart in the source
[5] = cited from earlier work; remark: listed apart in the source
[6] = 100 U by i.v. infusion; cited from earlier work
[7] = Paget's disease of the bone patients, injection; cited from earlier work
[8] = healthy test persons, infusion; cited from earlier work

Q: Which results are given for O=C(O)CCCCCCCNC(=O)c1cc(Cl)ccc1O [5-CNAC, N-(5-chlorosalicyloyl)-8-aminocaprylic acid]?
A: plasma insulin response during OGTT (DIO rats; peak 15 minutes after glucose, CT compared to 5-CNAC group): the levels stay in the hyperinsulinaemic state throughout the OGTT; maximum / peak blood glucose level during OGTT (DIO rats; reached 15 minutes after OGTT (CT), at 60 minutes (5-CNAC)): 9.8 mM; change in body weight [1]: Neither the CT treated group nor the 5-CNAC group display any change in their body weight

Q: With “amylin (KCNTATCATQRLANFLVHSSNNFGAILSSTNVGSNTY; not fully specified (C-terminus, bridges); cysteine pairing not given here; UniProt P10997 34-70, looked up) [calcitonin family peptide hormone, literature results]” as the compound, how does the “effect on rat hepatocytes and other cells” value (rat hepatocytes) read?
A: little effect

Q: What about the weight gain [2] of the same compound?
A: caused a reduction in weight gain

Q: And the glucose levels ([3]; fasting animals, parenterally administered)?
A: a rise in glucose levels

Q: And the “rise in glucose in oral glucose tolerance test” value ([3]; rats, parenterally administered shortly before the test)?
A: reduced the rise in glucose

Q: What about the plasma glucose ([4]; in the absence of a meal) of the same compound?
A: associated with a rise in plasma glucose in rodents, but not in humans

Q: And the “rise in plasma glucose” value ([4]; in the context of a meal, rats, dogs and humans)?
A: suppressed a rise in plasma glucose

Q: Which glycemic recovery ([5]; hypoglycaemic rat, compared to glucagon) does the source give for calcitonin here?
A: a greater glycemic recovery than glucagon

Q: What about the “glycaemia in the course of an OGTT” value [6] of the same compound?
A: a persistence of hyperglycaemia

Q: What about the insulin secretion [6] of the same compound?
A: An inhibitory action of calcitonin on insulin secretion was also observed

Q: What does the source list for “human calcitonin (CGNLSTCMLGTYTQDFNKFHTFPQTAIGVGAP; ends and bridges not checked; cysteine pairing not given here; listed as Homo sapiens)”?
A: serum glucose and serum insulin [7]: a moderate immediate rise in serum glucose and a slight decrease in serum insulin; glucose assimilation and insulin output [8]: significant impairment of glucose assimilation and insulin output

Q: For “rat calcitonin (CGNLSTCMLGTYTQDLNKFHTFPQTSIGVGAP; ends and bridges not checked; cysteine pairing not given here)”, which “effect on rat hepatocytes and other cells” value (rat hepatocytes) is on record?
A: little effect

Q: What about the fasting plasma glucose ([5]; rats and mice, intravenous bolus injection) of the same compound?
A: a lesser effect
